Measurements taken from the RepoRT retention time repository (doi:10.1021/acs.analchem.1c00972).
Where a name gives a salt, the structure may show the parent alone.

Legend:
Conditions in all cases: stereoisomer not certain
[1] = RP, Waters ACQUITY UPLC BEH C18, 100 × 1 mm, 1.7 µm, 50 °C, 0.3 mL/min, estimated dead time 0.17 min; A: water + 0.1% formic acid + 20 mM ammonium formate; B: methanol + 0.1% formic acid + 20 mM ammonium formate; gradient (min/%B) 0/0 15/100 21/100 22/0 30/0
[2] = RP, Phenomenex Synergi Polar-RP, 100 × 3 mm, 2.5 µm, 40 °C, 0.4 mL/min, estimated dead time 1.1 min; A: water + 1 mM ammonium fluoride; B: methanol + 1 mM ammonium fluoride; C: acetonitrile; D: 50% isopropanol + 50% acetone; gradient (min/%B/%C/%D) 0/5/0/0 2/5/0/0 8/95/0/0 12/80/15/0 19/25/70/0 19.5/0/25/70 21.5/0/25/70 22.5/0/25/0 23/5/0/0
[3] = RP, Waters ACQUITY UPLC BEH C18, 100 × 1 mm, 1.7 µm, 50 °C, 0.3 mL/min, estimated dead time 0.17 min; A: water + 10 mM ammonium bicarbonate; B: 10% water + 90% methanol + 10 mM ammonium bicarbonate; gradient (min/%B) 0/0 15/100 21/100 22/0 30/0

Structure (SMILES)	LC retention time [1] [min]	LC retention time [2] [min]	LC retention time [3] [min]
COC(=O)c1ccc(O)cc1 [Methylparaben]	9.98	9.32	9.08
O=S(=O)(O)c1ccc2ccccc2c1 [2-Naphthalene sulfonic acid]	8.66	7.25	8.6
O=C(O)C(F)(F)C(F)(F)C(F)(F)C(F)(F)C(F)(F)C(F)(F)C(F)(F)C(F)(F)C(F)(F)C(F)(F)C(F)(F)C(F)(F)C(F)(F)F [Perfluorotetradecanoic acid]	17.7	9.93	17.7
O=C1NS(=O)(=O)c2ccccc21 [Saccharin]	5.37	3.01	4.9
CCCCCCCCCCCCc1ccccc1S(=O)(=O)O [Dodecylbenzenesulfonic acid]	17.2	10.1	17.5
O=C(O)c1cc(Oc2ccc(Cl)cc2Cl)ccc1[N+](=O)[O-] [Bifenox free acid]	14.3	9.15	13.2
CC(Oc1ccc(Cl)cc1Cl)C(=O)O (configuration not stated) [Dichlorprop]	14	8.48	11.8
O=S(=O)(O)c1ccccc1 [Benzenesulfonic acid]	2.96	2.01	2.77
CC1=CC(=O)NS(=O)(=O)O1 [Acesulfame]	2.66	2.11	2.41
NS(=O)(=O)C(F)(F)C(F)(F)C(F)(F)C(F)(F)C(F)(F)C(F)(F)C(F)(F)C(F)(F)F [Perfluorooctanesulfonamide]	16.5	10.6	15.7
CCCCCCCCCCOS(=O)(=O)O [Decyl sulfate]	14.8	9.26	15.1
N#Cc1nn(-c2c(Cl)cc(C(F)(F)F)cc2Cl)c(N)c1S(=O)(=O)C(F)(F)F [Fipronil sulfone]	15.7	11.1	16
CCCCCCCCCCCCCCOS(=O)(=O)O [Tetradecylsulfate]	17.2	9.97	17.4
O=C(O)C(F)(F)C(F)(F)C(F)(F)C(F)(F)C(F)(F)C(F)(F)F [Perfluoroheptanoic acid]	13.8	11.3	13.9
